What was measured:
human Nav1.7 channels = target: T1, human Nav1.7 channels (Homo sapiens, UniProt Q15858); experiment: FRET assay, human Nav1.7 (EFS on FDSS); format: cell-based; conditions: CHO cells expressing human Nav1.7, read-out: IC50 against Nav1.7
T1 construct: expressed in transfected cells; host or cells: CHO
How it was run: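 IC50 was derived from normalized 440 nm fluorescence ratios of the EFS-evoked membrane-potential response read on FDSS. Recombinant CHO cells were sequentially dye-loaded with coumarin/oxonol FRET pair at room temperature in pH 7.4 buffer before compound addition.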

human Nav1.3 channels = target: T2, human Nav1.3 channels (Homo sapiens, UniProt Q9NY46); experiment: FRET assay, human Nav1.3 (EFS on FDSS); format: cell-based; conditions: HEK293 cells expressing human Nav1.3, read-out: IC50 against Nav1.3
T2 construct: expressed in transfected cells; host or cells: HEK293
T2 sequence (Q9NY46 whole entry): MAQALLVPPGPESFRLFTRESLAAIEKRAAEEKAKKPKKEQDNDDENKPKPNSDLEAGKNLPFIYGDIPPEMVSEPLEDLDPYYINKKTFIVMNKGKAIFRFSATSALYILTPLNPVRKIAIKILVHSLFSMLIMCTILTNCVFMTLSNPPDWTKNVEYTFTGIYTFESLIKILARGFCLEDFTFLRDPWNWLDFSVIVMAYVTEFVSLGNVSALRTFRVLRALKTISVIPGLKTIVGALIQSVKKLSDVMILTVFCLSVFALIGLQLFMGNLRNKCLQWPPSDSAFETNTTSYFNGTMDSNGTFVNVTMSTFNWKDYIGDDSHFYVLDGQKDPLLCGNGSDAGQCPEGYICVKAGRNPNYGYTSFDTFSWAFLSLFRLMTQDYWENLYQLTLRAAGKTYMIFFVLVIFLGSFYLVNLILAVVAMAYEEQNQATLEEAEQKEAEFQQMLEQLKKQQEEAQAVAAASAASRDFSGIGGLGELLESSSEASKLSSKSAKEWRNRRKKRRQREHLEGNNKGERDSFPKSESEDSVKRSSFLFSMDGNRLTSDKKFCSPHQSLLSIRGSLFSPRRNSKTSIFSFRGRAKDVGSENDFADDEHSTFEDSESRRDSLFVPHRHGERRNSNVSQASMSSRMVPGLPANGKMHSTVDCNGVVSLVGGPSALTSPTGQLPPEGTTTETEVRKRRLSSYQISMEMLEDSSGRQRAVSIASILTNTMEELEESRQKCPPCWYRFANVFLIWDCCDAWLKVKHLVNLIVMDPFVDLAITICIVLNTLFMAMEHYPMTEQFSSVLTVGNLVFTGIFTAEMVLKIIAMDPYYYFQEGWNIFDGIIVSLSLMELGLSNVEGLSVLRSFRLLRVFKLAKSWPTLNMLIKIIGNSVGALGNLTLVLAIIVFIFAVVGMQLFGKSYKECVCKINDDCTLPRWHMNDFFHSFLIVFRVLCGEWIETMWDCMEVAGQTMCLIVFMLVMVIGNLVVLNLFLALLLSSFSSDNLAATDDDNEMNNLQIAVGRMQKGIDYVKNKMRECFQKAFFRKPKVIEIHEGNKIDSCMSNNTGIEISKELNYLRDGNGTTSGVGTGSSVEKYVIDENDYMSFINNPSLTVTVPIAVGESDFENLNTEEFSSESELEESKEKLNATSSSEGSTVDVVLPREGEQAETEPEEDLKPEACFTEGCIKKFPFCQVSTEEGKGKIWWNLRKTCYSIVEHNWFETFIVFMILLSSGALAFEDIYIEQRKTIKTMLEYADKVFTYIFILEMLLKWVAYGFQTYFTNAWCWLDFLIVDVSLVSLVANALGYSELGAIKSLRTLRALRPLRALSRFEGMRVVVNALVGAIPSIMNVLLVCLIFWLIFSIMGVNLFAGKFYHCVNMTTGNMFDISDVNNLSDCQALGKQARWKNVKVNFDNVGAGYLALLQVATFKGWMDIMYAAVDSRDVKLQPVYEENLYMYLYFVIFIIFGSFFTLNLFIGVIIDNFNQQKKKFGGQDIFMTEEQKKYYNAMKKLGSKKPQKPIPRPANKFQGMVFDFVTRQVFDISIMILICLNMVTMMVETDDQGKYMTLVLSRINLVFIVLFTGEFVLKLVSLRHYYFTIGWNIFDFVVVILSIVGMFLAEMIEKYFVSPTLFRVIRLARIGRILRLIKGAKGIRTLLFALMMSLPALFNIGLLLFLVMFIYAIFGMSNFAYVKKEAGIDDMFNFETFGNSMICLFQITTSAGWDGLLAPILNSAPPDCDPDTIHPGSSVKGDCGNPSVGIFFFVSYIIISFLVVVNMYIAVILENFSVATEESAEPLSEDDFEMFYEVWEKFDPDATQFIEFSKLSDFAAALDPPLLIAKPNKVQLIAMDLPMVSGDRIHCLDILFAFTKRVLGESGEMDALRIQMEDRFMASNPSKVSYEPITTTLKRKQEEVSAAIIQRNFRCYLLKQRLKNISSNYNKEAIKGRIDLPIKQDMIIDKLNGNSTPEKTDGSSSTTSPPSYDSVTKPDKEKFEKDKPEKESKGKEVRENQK
How it was run: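 HEK293 cells expressing the channel, loaded with 10 microM CC2-DMPE then 15 microM DiSBAC2(3) plus 0.555 mM VABSC-1 in pH 7.4 HEPES buffer at room temperature. Membrane potential changes evoked by electrical field stimulation after compound addition; IC50 from 440 nm-normalized FRET ratios.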

T1 sequence (Q15858 whole entry): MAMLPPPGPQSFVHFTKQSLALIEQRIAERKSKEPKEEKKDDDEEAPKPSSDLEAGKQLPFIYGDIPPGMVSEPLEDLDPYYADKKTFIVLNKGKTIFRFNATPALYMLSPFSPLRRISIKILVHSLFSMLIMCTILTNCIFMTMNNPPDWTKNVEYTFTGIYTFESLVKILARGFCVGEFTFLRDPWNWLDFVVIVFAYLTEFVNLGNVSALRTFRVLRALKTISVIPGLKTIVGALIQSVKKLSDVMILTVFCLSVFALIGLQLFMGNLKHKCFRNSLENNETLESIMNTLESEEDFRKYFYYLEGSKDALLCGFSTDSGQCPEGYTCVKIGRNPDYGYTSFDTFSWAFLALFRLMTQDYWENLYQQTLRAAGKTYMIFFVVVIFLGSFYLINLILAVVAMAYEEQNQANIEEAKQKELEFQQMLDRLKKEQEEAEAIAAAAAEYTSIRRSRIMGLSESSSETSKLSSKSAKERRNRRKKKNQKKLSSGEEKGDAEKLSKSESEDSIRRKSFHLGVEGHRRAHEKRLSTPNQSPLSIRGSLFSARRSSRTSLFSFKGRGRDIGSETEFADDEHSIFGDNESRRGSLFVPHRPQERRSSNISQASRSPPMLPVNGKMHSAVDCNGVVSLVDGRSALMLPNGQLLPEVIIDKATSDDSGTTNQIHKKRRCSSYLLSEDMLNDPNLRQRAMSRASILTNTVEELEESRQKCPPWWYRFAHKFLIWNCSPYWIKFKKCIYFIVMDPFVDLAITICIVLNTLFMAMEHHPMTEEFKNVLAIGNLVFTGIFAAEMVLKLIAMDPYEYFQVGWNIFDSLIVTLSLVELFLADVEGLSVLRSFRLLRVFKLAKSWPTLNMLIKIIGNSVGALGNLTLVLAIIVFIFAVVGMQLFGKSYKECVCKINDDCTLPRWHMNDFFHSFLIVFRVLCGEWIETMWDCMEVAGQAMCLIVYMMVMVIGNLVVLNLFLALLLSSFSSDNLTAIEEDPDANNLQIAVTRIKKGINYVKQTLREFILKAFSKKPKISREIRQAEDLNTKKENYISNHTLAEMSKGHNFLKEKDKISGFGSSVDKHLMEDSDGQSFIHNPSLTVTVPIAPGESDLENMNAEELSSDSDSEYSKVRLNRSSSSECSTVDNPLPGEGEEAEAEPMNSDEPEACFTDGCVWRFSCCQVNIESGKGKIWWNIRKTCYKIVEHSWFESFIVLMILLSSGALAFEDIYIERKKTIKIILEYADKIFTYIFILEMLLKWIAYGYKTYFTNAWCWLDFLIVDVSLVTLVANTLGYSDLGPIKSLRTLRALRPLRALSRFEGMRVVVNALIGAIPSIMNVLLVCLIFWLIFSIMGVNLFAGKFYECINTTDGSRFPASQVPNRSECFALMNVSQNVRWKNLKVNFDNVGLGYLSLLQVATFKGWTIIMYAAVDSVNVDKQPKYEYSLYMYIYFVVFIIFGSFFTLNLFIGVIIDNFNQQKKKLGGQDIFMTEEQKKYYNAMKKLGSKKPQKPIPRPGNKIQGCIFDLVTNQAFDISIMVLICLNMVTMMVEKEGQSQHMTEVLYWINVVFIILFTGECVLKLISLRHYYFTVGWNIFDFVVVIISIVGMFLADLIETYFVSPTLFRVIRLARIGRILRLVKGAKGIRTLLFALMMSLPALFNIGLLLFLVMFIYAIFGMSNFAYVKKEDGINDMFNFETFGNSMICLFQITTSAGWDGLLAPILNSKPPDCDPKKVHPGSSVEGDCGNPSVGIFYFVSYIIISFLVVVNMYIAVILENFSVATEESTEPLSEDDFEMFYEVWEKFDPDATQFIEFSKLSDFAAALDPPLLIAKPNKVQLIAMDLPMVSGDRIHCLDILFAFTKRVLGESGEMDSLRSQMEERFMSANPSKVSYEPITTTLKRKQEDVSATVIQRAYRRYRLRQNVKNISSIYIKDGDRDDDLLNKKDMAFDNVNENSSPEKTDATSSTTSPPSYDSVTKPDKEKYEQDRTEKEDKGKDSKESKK

SMILES	IC50 (human Nav1.7 channels) [µM]	IC50 (human Nav1.3 channels) [µM]
CCC(=O)Nc1cc(C(=O)NCc2ccc(OCC(F)(F)F)c(C)c2)cc(C)n1 [Example 793, 2-methyl-N-(3-methyl-4-(2,2,2-trifluoroethoxy)benzyl)-6-propionamidoisonicotinamide]	< 1	< 1
CCC(=O)Nc1nc(C)cc(C(=O)NCc2ccc(OCC(F)(F)F)nc2OC)n1 [Example 180, N-((2-methoxy-6-(2,2,2-trifluoroethoxy)pyridin-3-yl)methyl)-6-methyl-2-propionamidopyrimidine-4-carboxamide]	< 1	< 1
CC(=O)Nc1cc(C(=O)NCc2cc(C)cc(OC(F)(F)F)c2)ccn1 [Example 597, 2-acetamido-N-(3-methyl-5-(trifluoromethoxy)benzyl)isonicotinamide]	< 1	< 1
CCC(=O)Nc1cc(C(=O)NCc2ccc(OCC(F)(F)F)c(C)c2)ccn1 [Example 789, N-(3-methyl-4-(2,2,2-trifluoroethoxy)benzyl)-2-propionamidoisonicotinamide]	< 1	< 1
CCC(=O)Nc1nccc(C(=O)NCc2cnc(OCC(F)(F)F)c(Cl)c2)n1 [Example 410, N-((5-chloro-6-(2,2,2-trifluoroethoxy)pyridin-3-yl)methyl)-2-propionamidopyrimidine-4-carboxamide]	< 1	< 1
Cc1cc(C(=O)NC(C)c2cnc(OCC(F)F)c(C)c2)cc(NC(=O)C(C)C)n1 (single isomer, unassigned) [Example 557, N-(1-(6-(2,2-difluoroethoxy)-5-methylpyridin-3-yl)ethyl)-2-isobutyramido-6-methylisonicotinamide]	< 1	< 1
Cc1cc(C(C)NC(=O)c2ccnc(NC(=O)C(C)C)n2)cnc1OCC(F)(F)F (single isomer, unassigned) [Example 225, 2-isobutyramido-N-(1-(5-methyl-6-(2,2,2-trifluoroethoxy)pyridin-3-yl)ethyl)pyrimidine-4-carboxamide]	< 1	< 1
CCC(=O)Nc1nc(C)cc(C(=O)NC(C)c2cnc(OCC(F)(F)F)c(C)c2)n1 (single isomer, unassigned) [Example 227, 6-methyl-N-(1-(5-methyl-6-(2,2,2-trifluoroethoxy)pyridin-3-yl)ethyl)-2-propionamidopyrimidine-4-carboxamide]	< 1	< 1
CC(NC(=O)c1ccnc(NC(=O)C2CC2)n1)c1ccc(OCC(F)(F)F)c(Cl)c1 (single isomer, unassigned) [Example 680, N-(1-(3-chloro-4-(2,2,2-trifluoroethoxy)phenyl)ethyl)-2-(cyclopropanecarboxamido)pyrimidine-4-carboxamide]	< 1	< 1
CCC(=O)Nc1cc(C(=O)NCc2cnc(OCC(F)(F)F)c(C)c2)cc(C)n1 [Example 372, 2-methyl-N-((5-methyl-6-(2,2,2-trifluoroethoxy)pyridin-3-yl)methyl)-6-propionamidoisonicotinamide]	< 1	< 1
Cc1cc(C(=O)NCc2cnc(OCC(F)(F)F)c(Br)c2)nc(NC(=O)C2CC2)n1 [Example 902, N-((5-bromo-6-(2,2,2-trifluoroethoxy)pyridin-3-yl)methyl)-2-(cyclopropanecarboxamido)-6-methylpyrimidine-4-carboxamide]	< 1	< 1
O=C(NCc1cnc(OCC(F)F)c(Cl)c1)c1ccnc(NC(=O)C2CC2)n1 [Example 707, N-((5-chloro-6-(2,2-difluoroethoxy)pyridin-3-yl)methyl)-2-(cyclopropanecarboxamido)pyrimidine-4-carboxamide]	< 1	< 1
COc1nc(OCC(F)(F)F)ccc1CNC(=O)c1cc(C)nc(NC(C)=O)c1 [Example 241, 2-acetamido-N-((2-methoxy-6-(2,2,2-trifluoroethoxy)pyridin-3-yl)methyl)-6-methylisonicotinamide]	< 1	< 1
COc1nc(OCC(F)(F)F)ccc1CNC(=O)c1cc(C)nc(NC(=O)C(C)C)c1 [Example 494, 2-isobutyramido-N-((2-methoxy-6-(2,2,2-trifluoroethoxy)pyridin-3-yl)methyl)-6-methylisonicotinamide]	< 1	< 1
Cc1cc(C(C)NC(=O)c2ccnc(NC(=O)C3CCC3)n2)cnc1OCC(F)(F)F (single isomer, unassigned) [Example 226, 2-(cyclobutanecarboxamido)-N-(1-(5-methyl-6-(2,2,2-trifluoroethoxy)pyridin-3-yl)ethyl)pyrimidine-4-carboxamide]	< 1	< 1
Cc1cc(CNC(=O)c2ccnc(NC(=O)C(C)C)c2)ccc1OC(F)(F)F [Example 807, 2-isobutyramido-N-(3-methyl-4-(trifluoromethoxy)benzyl)isonicotinamide]	< 1	< 1
COc1cc(CNC(=O)c2cc(C)nc(NC(=O)C(C)C)n2)cnc1OCC(F)(F)F [Example 443, 2-isobutyramido-N-((5-methoxy-6-(2,2,2-trifluoroethoxy)pyridin-3-yl)methyl)-6-methylpyrimidine-4-carboxamide]	< 1	< 1
Cc1cc(C(C)NC(=O)c2ccnc(NC(=O)C3CC3)n2)cnc1OCC(F)(F)F (single isomer, unassigned) [Example 224, 2-(cyclopropanecarboxamido)-N-(1-(5-methyl-6-(2,2,2-trifluoroethoxy)pyridin-3-yl)ethyl)pyrimidine-4-carboxamide]	< 1	< 1
CCOc1nc(OCC(F)(F)F)ccc1CNC(=O)c1cc(C)nc(NC(=O)C(C)C)n1 [Example 360, N-((2-ethoxy-6-(2,2,2-trifluoroethoxy)pyridin-3-yl)methyl)-2-isobutyramido-6-methylpyrimidine-4-carboxamide]	< 1	< 1
CCC(=O)Nc1cc(C(=O)NC(C)c2cccc(OC(F)(F)F)c2)cc(C)n1 (single isomer, unassigned) [Example 134, 2-methyl-6-propionamido-N-(1-(3-(trifluoromethoxy)phenyl)ethyl)isonicotinamide]	< 1	< 1
CC(=O)Nc1cc(C(=O)NCc2cccc(OC(F)(F)F)c2F)cc(C)n1 [Example 751, 2-acetamido-N-(2-fluoro-3-(trifluoromethoxy)benzyl)-6-methylisonicotinamide]	< 1	< 1

Further lines, results first:

IC50 (human Nav1.7 channels) [µM]	IC50 (human Nav1.3 channels) [µM]	SMILES
< 1	< 1	Cc1cc(C(=O)NCc2cnc(OCC(F)(F)C(F)F)c(C)c2)nc(NC(=O)C2CC2)n1 [Example 947, 2-(cyclopropanecarboxamido)-6-methyl-N-((5-methyl-6-(2,2,3,3-tetrafluoropropoxy)pyridin-3-yl)methyl)pyrimidine-4-carboxamide]
< 1	< 1	CC(C)C(=O)Nc1cc(C(=O)NCc2ccc(OCC(F)(F)F)nc2)ccn1 [Example 169, 2-isobutyramido-N-((6-(2,2,2-trifluoroethoxy)pyridin-3-yl)methyl)isonicotinamide]
< 1	< 1	CCC(=O)Nc1cc(C(=O)NC(C)c2cnc(OCC(F)(F)F)c(Cl)c2)cc(C)n1 (single isomer, unassigned) [Example 130, N-(1-(5-chloro-6-(2,2,2-trifluoroethoxy)pyridin-3-yl)ethyl)-2-methyl-6-propionamidoisonicotinamide]
< 1	< 1	CCC(=O)Nc1cc(C(=O)NCc2ccc(OCC(F)(F)F)nc2OC)ccn1 [Example 149, N-((2-methoxy-6-(2,2,2-trifluoroethoxy)pyridin-3-yl)methyl)-2-propionamidoisonicotinamide]
< 1	< 1	Cc1cc(C(=O)NCc2cccc(OC(F)(F)F)c2)cc(NC(=O)CC2CC2)n1 [Example 962, 2-(2-cyclopropylacetamido)-6-methyl-N-(3-(trifluoromethoxy)benzyl)isonicotinamide]
< 1	< 1	Cc1cc(C(=O)NCc2cnc(OCC(F)(F)F)c(C)c2)cc(NC(=O)C2CC2)n1 [Example 824, 2-(cyclopropanecarboxamido)-6-methyl-N-((5-methyl-6-(2,2,2-trifluoroethoxy)pyridin-3-yl)methyl)isonicotinamide]
< 1	< 1	CCC(=O)Nc1cc(C(=O)NCc2cccc(OC(F)F)c2)cc(C)n1 [Example 129, N-(3-(difluoromethoxy)benzyl)-2-methyl-6-propionamidoisonicotinamide]
< 1	< 1	CCC(=O)Nc1cc(C(=O)NCc2ccc(OCC(F)(F)F)nc2OC)cc(C)n1 [Example 150, N-((2-methoxy-6-(2,2,2-trifluoroethoxy)pyridin-3-yl)methyl)-2-methyl-6-propionamidoisonicotinamide]
< 1	< 1	Cc1cc(C(=O)NC(C)c2cnc(OCC(F)(F)F)c(C)c2)nc(NC(=O)C2CC2)n1 (single isomer, unassigned) [Example 228, 2-(cyclopropanecarboxamido)-6-methyl-N-(1-(5-methyl-6-(2,2,2-trifluoroethoxy)pyridin-3-yl)ethyl)pyrimidine-4-carboxamide]
< 1	< 1	CCC(=O)Nc1cc(C(=O)NCc2cnc(OCC(F)(F)F)c(Cl)c2)ccn1 [Example 94, N-((5-chloro-6-(2,2,2-trifluoroethoxy)pyridin-3-yl)methyl)-2-propionamidoisonicotinamide]
